Drawing on US20070072897A1, “Phenylaminopropanol derivatives and methods of their use” (Wyeth, priority 2005, published 2007), this text covers IC50, inhibition and EC50 for 23 molecules.

Counter-ions that a name gives are not always drawn.

One experiment deals with T1, human 5-HT2A receptor (Homo sapiens, UniProt P28223).
T1 construct: expressed in transfected cells; host or cells: CHO
Briefly: 5-HT2A FLIPR assay (calcium response to DOI) in CHO cells. The settings on record: for IC50: antagonist inhibition of 3 nM DOI stimulation, CHO cells, FLIPR; for inhibition at 1 µM: CHO, read-out: 5-HT2A Percentage inhibition at 1 μM. The experiment is classed as cell-based. An outline of the steps: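 CHO cells loaded with calcium dye in HBSS/20 mM HEPES; FLIPR fluorescence recorded after compound addition (10^−10–10^−5 M) for 2 min to detect agonism, then after 3 nM DOI challenge for 5 min for antagonism. Data log transformed before analysis.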

For another experiment, the target named is T2, human hNET (Homo sapiens, UniProt P23975).
T2 construct: expressed in transfected cells; host or cells: MDCK (MDCK-Net6)
Nature of the experiment: Norepinephrine (NE) uptake assay in MDCK-Net6 cells. It counts as cell-based. The settings on record: [3H]NE uptake; for inhibition at 1 µM: MDCK-Net6 cells, read-out: hNET Percentage inhibition at 1 μM; for EC50: MDCK-Net6 cells stably transfected with hNET.

T2 sequence (P23975 whole entry): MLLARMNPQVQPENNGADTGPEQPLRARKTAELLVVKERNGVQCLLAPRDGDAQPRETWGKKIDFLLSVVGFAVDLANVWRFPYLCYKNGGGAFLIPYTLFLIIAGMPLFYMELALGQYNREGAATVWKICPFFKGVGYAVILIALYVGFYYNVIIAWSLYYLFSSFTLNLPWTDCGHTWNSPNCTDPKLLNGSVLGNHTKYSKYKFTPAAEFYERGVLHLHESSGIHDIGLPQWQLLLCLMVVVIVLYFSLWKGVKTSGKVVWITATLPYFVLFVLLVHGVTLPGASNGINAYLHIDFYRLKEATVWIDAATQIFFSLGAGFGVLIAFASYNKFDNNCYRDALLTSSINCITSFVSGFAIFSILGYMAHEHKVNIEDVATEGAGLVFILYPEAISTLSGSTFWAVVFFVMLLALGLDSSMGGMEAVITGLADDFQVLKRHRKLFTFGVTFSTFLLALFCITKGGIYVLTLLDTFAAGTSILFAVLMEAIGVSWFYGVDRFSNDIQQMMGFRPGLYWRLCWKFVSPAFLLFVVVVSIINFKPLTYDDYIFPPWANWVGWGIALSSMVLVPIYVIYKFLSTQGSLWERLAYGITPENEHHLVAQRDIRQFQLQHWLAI
T1 sequence (P28223 whole entry): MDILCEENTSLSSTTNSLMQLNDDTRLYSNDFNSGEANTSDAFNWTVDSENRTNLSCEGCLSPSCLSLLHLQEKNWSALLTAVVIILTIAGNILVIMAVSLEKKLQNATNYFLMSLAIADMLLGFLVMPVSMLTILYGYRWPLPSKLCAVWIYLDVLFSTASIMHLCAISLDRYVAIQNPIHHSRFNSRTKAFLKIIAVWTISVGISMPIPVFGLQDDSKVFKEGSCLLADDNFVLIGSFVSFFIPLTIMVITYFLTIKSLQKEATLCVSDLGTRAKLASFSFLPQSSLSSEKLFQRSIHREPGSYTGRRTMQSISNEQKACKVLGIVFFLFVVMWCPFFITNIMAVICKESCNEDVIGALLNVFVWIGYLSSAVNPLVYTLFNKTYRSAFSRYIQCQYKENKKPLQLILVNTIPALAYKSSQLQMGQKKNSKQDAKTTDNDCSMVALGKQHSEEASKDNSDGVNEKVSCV

On to `CN(C)C[C@@H](O)[C@H](c1ccccc1)n1ccc2cc(OCc3ccccc3)ccc21` [Example 86, (1S,2R)-1-[5-(benzyloxy)-1H-indol-1-yl]-3-(dimethylamino)-1-phenylpropan-2-ol hydrochloride], for which the IC50 at human 5-HT2A receptor was 263 nM. For the same molecule, the inhibition at 1 µM at human hNET was found to be 22%.

In the case of `CCN(C)C[C@@H](O)[C@H](c1ccccc1)n1ccc2cc(OCc3ccccc3)ccc21` [Example 87, (1S,2R)-1-[5-(benzyloxy)-1H-indol-1-yl]-3-[ethyl(methyl)amino]-1-phenylpropan-2-ol hydrochloride], the IC50 on human 5-HT2A receptor is 1120 nM. The inhibition at 1 µM at human hNET was found to be 16%.

Take `CCN(CC)C[C@@H](O)[C@H](c1ccccc1)n1ccc2cc(OCc3ccccc3)ccc21` [Example 88, (1S,2R)-1-[5-(benzyloxy)-1H-indol-1-yl]-3-(diethylamino)-1-phenylpropan-2-ol hydrochloride]: the inhibition at 1 µM amounted to 33% at human 5-HT2A receptor and 21% on human hNET.

For the molecule `O[C@H](CN1CCCC1)[C@H](c1ccccc1)n1ccc2cc(OCc3ccccc3)ccc21` [Example 89, (1S,2R)-1-[5-(benzyloxy)-1H-indol-1-yl]-1-phenyl-3-pyrrolidin-1-ylpropan-2-ol hydrochloride], the inhibition at 1 µM at human 5-HT2A receptor amounted to 32%; on human hNET, 14%.

`O[C@H](CN1CCCCC1)[C@H](c1ccccc1)n1ccc2cc(OCc3ccccc3)ccc21` [Example 90, (1S,2R)-1-[5-(benzyloxy)-1H-indol-1-yl]-1-phenyl-3-piperidin-1-ylpropan-2-ol hydrochloride]: the results for the inhibition at 1 µM at human 5-HT2A receptor and on human hNET were 25% and 12%, respectively.

As for `CN1CCN(C[C@@H](O)[C@H](c2ccccc2)n2ccc3cc(OCc4ccccc4)ccc32)CC1` [Example 91, (1S,2R)-1-[5-(benzyloxy)-1H-indol-1-yl]-3-(4-methylpiperazin-1-yl)-1-phenylpropan-2-ol hydrochloride], the figures for the inhibition at 1 µM at human 5-HT2A receptor and on human hNET were 29% and 22%, respectively.

Regarding `CNC[C@@H](O)[C@H](c1ccccc1)n1ccc2cc(C#Cc3ccccc3)ccc21` [Example 93, (1S,2R)-3-(methylamino)-1-phenyl-1-[5-(phenylethynyl)-1H-indol-1-yl]propan-2-ol hydrochloride], the inhibition at 1 µM on human 5-HT2A receptor stood at 36%. At human hNET, this molecule returned a concentration giving a half-maximal response (EC50) of 287 nM.

For the molecule `CNC[C@@H](O)[C@H](c1ccccc1)n1ccc2cc(CCc3ccccc3)ccc21` [Example 94, (1S,2R)-3-(methylamino)-1-phenyl-1-[5-(2-phenylethyl)-1H-indol-1-yl]propan-2-ol hydrochloride], the IC50 on human 5-HT2A receptor was determined as 636 nM. Moreover, the 50% effective concentration (EC50) on human hNET was 86 nM.

`NC[C@@H](O)[C@H](c1ccccc1)N1C(=O)C2(CCCCC2)c2ccc(F)cc21` [Example 95, 1′-[(1S,2R)-3-amino-2-hydroxy-1-phenylpropyl]-6′-fluorospiro[cyclohexane-1,3′-indol]-2′(1′H)-one hydrochloride]: the inhibition at 1 µM on human 5-HT2A receptor amounted to 44%; on human hNET, 7%.

Turning to `CCNC[C@@H](O)[C@H](c1ccccc1)N1C(=O)C2(CCCCC2)c2ccc(F)cc21` [Example 96, 1′-[(1S,2R)-3-(ethylamino)-2-hydroxy-1-phenylpropyl]-6′-fluorospiro[cyclohexane-1,3′-indol]-2′(1′H)-one hydrochloride], the IC50 on human 5-HT2A receptor is 462 nM. Further, the inhibition at 1 µM on human hNET is 48%.

As for `CC(C)NC[C@@H](O)[C@H](c1ccccc1)N1C(=O)C2(CCCCC2)c2ccc(F)cc21` [Example 97, 6′-fluoro-1′-[(1S,2R)-2-hydroxy-3-(isopropylamino)-1-phenylpropyl]spiro[cyclohexane-1,3′-indol]-2′(1′H)-one hydrochloride], the results for the inhibition at 1 µM on human 5-HT2A receptor and on human hNET were 44% and 0%, respectively.

`CCCNC[C@@H](O)[C@H](c1ccccc1)N1C(=O)C2(CCCCC2)c2ccc(F)cc21` [Example 98, 6′-fluoro-1′-[(1S,2R)-2-hydroxy-1-phenyl-3-(propylamino)propyl]spiro[cyclohexane-1,3′-indol]-2′(1′H)-one hydrochloride]: the IC50 on human 5-HT2A receptor came to 672 nM. For the same molecule, the inhibition at 1 µM on human hNET stood at 0%.

As for `NC[C@@H](O)[C@H](c1ccccc1)N1C(=O)C2(CCCCC2)c2cc(F)ccc21` [Example 99, 1′-[(1S,2R)-3-amino-2-hydroxy-1-phenylpropyl]-5′-fluorospiro[cyclohexane-1,3′-indol]-2′(1′H)-one hydrochloride], the inhibition at 1 µM on human 5-HT2A receptor came out at 7%; at human hNET, 11%.

Turning to `CCNC[C@@H](O)[C@H](c1ccccc1)N1C(=O)C2(CCCCC2)c2cc(F)ccc21` [Example 100, 1′-[(1S,2R)-3-(ethylamino)-2-hydroxy-1-phenylpropyl]-5′-fluorospiro[cyclohexane-1,3′-indol]-2′(1′H)-one hydrochloride], on human 5-HT2A receptor, the half-inhibitory concentration (IC50) turned out to be 378 nM. Further, the inhibition at 1 µM on human hNET was 31%.

As to `CC(C)NC[C@@H](O)[C@H](c1ccccc1)N1C(=O)C2(CCCCC2)c2cc(F)ccc21` [Example 101, 5′-fluoro-1′-[(1S,2R)-2-hydroxy-3-(isopropylamino)-1-phenylpropyl]spiro[cyclohexane-1,3′-indol]-2′(1′H)-one hydrochloride], the values for the inhibition at 1 µM on human 5-HT2A receptor and on human hNET were 22% and 0%, respectively.

`CCCNC[C@@H](O)[C@H](c1ccccc1)N1C(=O)C2(CCCCC2)c2cc(F)ccc21` [Example 102, 5′-fluoro-1′-[(1S,2R)-2-hydroxy-1-phenyl-3-(propylamino)propyl]spiro[cyclohexane-1,3′-indol]-2′(1′H)-one hydrochloride]: on human 5-HT2A receptor, the IC50 is 895 nM. Moreover, on human hNET, the inhibition at 1 µM worked out at 0%.

As for `CN(C)C[C@@H](O)[C@H](c1ccccc1)N1C(=O)C2(CCCCC2)c2cc(F)ccc21` [Example 103, 1′-[(1S,2R)-3-(dimethylamino)-2-hydroxy-1-phenylpropyl]-5′-fluorospiro[cyclohexane-1,3′-indol]-2′(1′H)-one hydrochloride], at human 5-HT2A receptor, the concentration for half-maximal inhibition (IC50) was 77 nM. For the same molecule, on human hNET, the inhibition at 1 µM is 19%.

With `O=C1N([C@@H](c2ccccc2)[C@H](O)CN2CCOCC2)c2ccc(F)cc2C12CCCCC2` [Example 104, 5′-fluoro-1′-[(1S,2R)-2-hydroxy-3-morpholin-4-yl-1-phenylpropyl]spiro[cyclohexane-1,3′-indol]-2′(1′H)-one hydrochloride], the inhibition at 1 µM at human 5-HT2A receptor was 22%; on human hNET, 13%.

For the molecule `CNC[C@@H](O)[C@H](c1ccccc1)N1C(=O)C2(CCCCC2)c2cc(OC)ccc21` [Example 105, 1′-[(1S,2R)-2-hydroxy-3-(methylamino)-1-phenylpropyl]-5′-methoxyspiro[cyclohexane-1,3′-indol]-2′(1′H)-one hydrochloride], the inhibition at 1 µM on human 5-HT2A receptor came out at 37%. Also, at human hNET, the EC50 came to 81 nM.

As to `CNC[C@@H](O)[C@H](c1ccccc1)N1C(=O)C2(CCCCC2)c2ccc(OC)cc21` [Example 106, 1′-[(1S,2R)-2-hydroxy-3-(methylamino)-1-phenylpropyl]-6′-methoxyspiro[cyclohexane-1,3′-indol]-2′(1′H)-one hydrochloride], the concentration for half-maximal inhibition (IC50) on human 5-HT2A receptor was 615 nM. The EC50 at human hNET stood at 908 nM.

As to `CNC[C@@H](O)[C@H](c1ccccc1)N1C(=O)C2(CCCCC2)c2cc(C#N)ccc21` [Example 107, 1′-[(1S,2R)-2-hydroxy-3-(methylamino)-1-phenylpropyl]-2′-oxo-1′,2′-dihydrospiro[cyclohexane-1,3′-indole]-5′-carbonitrile hydrochloride], on human 5-HT2A receptor, the IC50 turned out to be 168 nM. The EC50 at human hNET worked out at 349 nM.

With `CNC[C@@H](O)[C@H](c1ccccc1)N1C(=O)C2(CCCCC2)c2ccc(C#N)cc21` [Example 108, 1′-[(1S,2R)-2-hydroxy-3-(methylamino)-1-phenylpropyl]-2′-oxo-1′,2′-dihydrospiro[cyclohexane-1,3′-indole]-6′-carbonitrile hydrochloride], the inhibition at 1 µM at human 5-HT2A receptor was 11%. At human hNET, this molecule showed an EC50 of 1260 nM.

For the molecule `CNC[C@@H](O)[C@H](c1ccccc1)N1C(=O)C2(CCCCC2)c2c1ccc(F)c2F` [Example 109, 4′,5′-difluoro-1′-[(1S,2R)-2-hydroxy-3-(methylamino)-1-phenylpropyl]spiro[cyclohexane-1,3′-indol]-2′(1′H)-one hydrochloride], at human 5-HT2A receptor, the half-maximal inhibitory concentration (IC50) stood at 1480 nM. This molecule also yielded an EC50 at human hNET of 107 nM.

As usually defined, the IC50 is the point on the concentration scale where inhibition reaches its midpoint. One may read the inhibition as the percentage by which the read-out fell short of the control. One may read the EC50 as the midpoint of the concentration-response curve.
